Test results: patent US20200038418A1, “METHODS OF TREATING AUTISM SPECTRUM DISORDER USING AMINOSTEROL COMPOSITIONS” (Enterin, Inc., priority 2018, published 2020)

Tests used:
[1] = single and repeat intravenous administration, alone or in combination; cited from earlier work
[2] = tested on: mice with constipation due to overexpression of human αS; assay: Gastrointestinal motility in mouse models of PD; type: in vivo
[3] = tested on: IPANs (intrinsic primary afferent neuron); assay: Perfusion of isolated segment of bowel from the PD mouse model; details: perfusion through the lumen of isolated bowel segment from PD mouse model
[4] = intravenous administration, prior studies; cited from earlier work
[5] = systemic administration, mice; cited from earlier work

SMILES | dose well tolerated [1] | gastro-intestinal motility ([2]; orally administered, mice with constipation due to overexpression of human αS) | effect on gastrointestinal dysmotility ([2]; several mouse models of PD) | effect on IPANs and peristaltic contractions [3] | gastrointestinal motility [4] | clearance and excretion [5]
CC(C)[C@@H](CC[C@@H](C)[C@H]1CC[C@H]2[C@@H]3[C@H](O)C[C@H]4C[C@@H](NCCCNCCCCN)CC[C@]4(C)[C@H]3CC[C@]12C)OS(=O)(=O)O.C[C@H](O)C(=O)O.C[C@H](O)C(=O)O [squalamine dilactate salt] | at least 300 mg/m^2 |  |  |  |  | 
CC(C)[C@@H](CC[C@@H](C)[C@H]1CC[C@H]2[C@@H]3[C@H](O)C[C@H]4C[C@@H](NCCCNCCCCN)CC[C@]4(C)[C@H]3CC[C@]12C)OS(=O)(=O)O [squalamine] |  | stimulates gastro-intestinal motility | reverse gastrointestinal dysmotility | excitation of IPANs | not associated with increased gastrointestinal motility | cleared by the liver and excreted as the intact molecule
